From patent publication US11058737B2, “Use of Euycoma longifolia extract in alleviating symptoms and/or conditions associated with hormonal imbalance in females” ([…] BERHAD, priority 2018, dated 2021)

Legend:
Assay type in all cases: in vivo, Sprague Dawley rats
ovariectomized rats = test: Clinical signs of toxicity and mortality in ovariectomized rat model; conditions: 10 mg/kg intramuscular once every 4 weeks, 8 weeks
Method: (§1) 48 female Sprague dawley rats were ovariectomized or sham operated. Both sham and ovariectomized rats (n=8) received the vehicle. The remaining 3 group ovariectomized rats were orally administrated with Eurycoma longifolia aqueous extract 100 mg/kg, 300 mg/kg and 500 mg/kg b.w. The treatment continued for 8 weeks. Group 6 ovariectomized rats received testosterone undecanoate (10 mg/kg b.w) through the route of intramuscular injection once in every 4 weeks for 8 weeks. At week 8 of the last dose, sexual behaviors were recorded. Blood was collected for biochemical analysis. Calcium, phosphate, bone alkaline phosphatase (ALP), osteocalcin and hormone profile estimation was done. […]
(§2) In Group 2, only ovariectomy was performed. […] 30 gms feed was added daily to each animal in the morning time and leftover feed was recorded on next day from the same animal cage. […]

[1] = Body weight of ovariectomized rats; conditions: 10 mg/kg intramuscular once every 4 weeks
Method: (§3) 48 female Sprague dawley rats were ovariectomized or sham operated. Both sham and ovariectomized rats (n=8) received the vehicle. The remaining 3 group ovariectomized rats were orally administrated with Eurycoma longifolia aqueous extract 100 mg/kg, 300 mg/kg and 500 mg/kg b.w. The treatment continued for 8 weeks. Group 6 ovariectomized rats received testosterone undecanoate (10 mg/kg b.w) through the route of intramuscular injection once in every 4 weeks for 8 weeks. At week 8 of the last dose, sexual behaviors were recorded. Blood was collected for biochemical analysis. Calcium, phosphate, bone alkaline phosphatase (ALP), osteocalcin and hormone profile estimation was done.
(§4) Test System • Animal species: Rats • Strain: Sprague Dawley • Justification for Selection of Species: Recommended and Justified by sponsor • Sex: Female • Age: 10-12 weeks (Mohamed et al, 2016) • Source of supply: In house breed • No. of groups: 6 • Group 1: Sham operated group (surgically opened but no ovariectomy) • Group 2: Ovariectomy group (Negative control) • Group 3: Ovariectomy+Low dose extract • Group 4: Ovariectomy+Middle dose extract • Group 5: Ovariectomy+High dose extract • Group 6: Ovariectomy+Testosterone undecanoate (Positive control) • No. of Animals/Group: 8 females/group • Age at Treatment: 12 weeks • Body Weight Range at Receipt: 120-250 gms • Animal Identification: Each animal will be marked by picric acid and numbering will be given individually to each animal. • Acclimatization: The rats were acclimatized for 1 week before treatment.
(§5) In Group 2, only ovariectomy was performed. Group 3, Group 4 and Group 5 received the Eurycoma longifolia aqueous extract daily at low dose (100 mg/kg), middle dose (300 mg/kg) and high dose (500 mg/kg) at respective concentrations orally for 8 weeks, whereas Group 6 received Testosterone undecanoate (10 mg/kg) intramuscular injection once in every 4 weeks for 8 weeks. • (i) Surgical Procedure • Anesthesia was induced by intraperitoneal injection of ketamine HCL (80 mg/kg) and the depth of anesthesia was checked by monitoring respiratory rate or simply testing the animal response to gentle pressure on the hind paws. After the onset of anesthesia, animal was placed under operating area. Clippers were used to clip the skin and shaved fur bilaterally to expose skin. The procedure was carried out by making two incisions to separately reach each ovary. Shaved skin was swab with 70% (v/v) ethanol. Anaesthetized animal was placed on the operating table with its back exposed and its tail towards the operator. A single dorsal incision (1 cm) was made penetrating the skin using small scissors. Incision was made in the lower back, directly below the bottom of the rib cage. Gently subcutaneous connective tissue was made free from the underlying muscle on each side using blunt forceps. Ovary was located under the thin muscle layer and a small incision (less than 1 cm) was made on each side to gain entry to the peritoneal cavity. The edge of the incision was holded securely with tooth forceps and the ovarian fat pad was retracted surrounding ovaries with blunt forceps to expose oviduct. Ovary was removed by gently severing the oviduct, using sterile, small scissors. Uterus was replaced and remaining part of the oviduct back into the abdominal cavity. Muscle layer was sutured and procedure was repeated for the other ovary. […] 30 gms feed was added daily to each animal in the morning time and leftover feed was recorded on next day from the same animal cage. […]

ovariectomized rat model [2] = test: Biochemical estimations: serum calcium, phosphate, bone alkaline phosphatase, osteocalcin; conditions: ovariectomized rats
Method: (§6) The test item, i.e. aqueous extract of Eurycoma longifolia, was studied for its capabilities or effect in relation to the alleviation or treatment of menopause symptoms and hormonal activity against ovariectomized rat model in vivo.
as §3, §4
as §5, with “oviduct.” for “oviduct. Ovary was removed by gently severing the oviduct, using sterile, small scissors. Uterus was replaced and remaining part of the oviduct back into the abdominal cavity. Muscle layer was sutured and procedure was repeated for the other ovary.”

ovariectomized rat model [3] = test: Reproductive hormone levels in rat serum (FSH, LH, progesterone, estrogen, testosterone; CLIA); conditions: ovariectomized rats, 10 mg/kg intramuscular once every 4 weeks, 8 weeks
Method: as §6, §3, §4
as §5, with “oviduct.” for “oviduct. Ovary was removed by gently severing the oviduct, using sterile, small scissors. Uterus was replaced and remaining part of the oviduct back into the abdominal cavity. Muscle layer was sutured and procedure was repeated for the other ovary.”

ovariectomized rat model [4] = test: Uterus weight at necropsy; conditions: ovariectomized rats, 10 mg/kg intramuscular once every 4 weeks
Method: as §1, §2

[5] = serum, 10 mg/kg intramuscular once every 4 weeks, 8 weeks, 10 mg/kg

**Q.** What does the source list for `CCCCCCCCCCC(=O)O[C@H]1CC[C@H]2[C@@H]3CCC4=CC(=O)CC[C@]4(C)[C@H]3CC[C@]12C` [Testosterone undecanoate]?
**A.** No. of Mortality/No. of Animals Dosed (ovariectomized rats): 0/8; Body Weight ([1]; Basal): 185.0 ± 3.35; Body Weight ([1]; Week 1): 196.0 ± 3.17; Body Weight ([1]; Week 2): 207.4 ± 2.99; Body Weight ([1]; Week 3): 217.8 ± 3.31; Body Weight ([1]; Week 4): 229.4 ± 3.24; Body Weight ([1]; Week 5): 238.6 ± 3.33; Body Weight ([1]; Week 6): 244.8 ± 3.53; Body Weight ([1]; Week 7): 252.9 ± 4.37; Body Weight ([1]; Week 8): 259.3 ± 4.85; Percentage of Weight Gain ([1]; from basal to Week 1): 5.95%; Percentage of Weight Gain ([1]; from basal to Week 2): 12.11%; Percentage of Weight Gain ([1]; from basal to Week 3): 17.73%; Percentage of Weight Gain ([1]; from basal to Week 4): 24.00%; Percentage of Weight Gain ([1]; from basal to Week 5): 28.97%; Percentage of Weight Gain ([1]; from basal to Week 6): 32.32%; Percentage of Weight Gain ([1]; from basal to Week 7): 36.70%; Percentage of Weight Gain ([1]; from basal to Week 8): 40.16%; serum osteocalcin levels, change (ovariectomized rat model [2]; positive control 10 mg/kg intramuscular, no significant changes): Decreased serum osteocalcin levels; Osteocalcin (ovariectomized rat model [2]; serum, 10 mg/kg intramuscular once every 4 weeks, 8 weeks): 7.26 ± 0.20 ng/mL; Bone Alkaline phosphatase (ovariectomized rat model [2]; [5]): 3.06 ± 0.12 ng/mL; Calcium (ovariectomized rat model [2]; [5]): 8.48 ± 0.16 mg/dL; Phosphate (ovariectomized rat model [2]; [5]): 3.29 ± 0.13 mg/dL; Estrogen (ovariectomized rat model [3]): 12.35 ± 0.25 pg/mL; FSH (ovariectomized rat model [3]): 3.96±0.22 mlU/ml; LH (ovariectomized rat model [3]): 3.76±0.11 mlU/ml; Progesterone (ovariectomized rat model [3]): 3.31 ± 0.15 ng/mL; Testosterone (ovariectomized rat model [3]): 13.01 ± 0.41 ng/mL; uterus weight, effect after ovariectomy (ovariectomized rat model [4]): prevented the ovariectomy induced loss of uterus weight; UTERUS WEIGHT (ovariectomized rat model [4]; 8 weeks, 10 mg/kg): 389.74 ± 8.26 mg
